# Measurements as given in patent US20250333745A1, “METHODS AND COMPOSITIONS FOR TREATMENT OF POLYCYSTIC KIDNEY DISEASE” (Regulus Therapeutics Inc., priority 2016, published 2025).
# Columns and labels:
# [1] = In vitro metabolic stability in human liver lysate; format: in vitro ADME; conditions: 24-hour incubation of RG4326
# Method: (§1) Due to their reduced capacity for serum protein binding, which is a property that drives oligonucleotide distribution in the body, short oligonucleotides are not necessarily expected to have pharmacokinetic properties that make them suitable for use as drugs. RG4326 was incubated in mouse, monkey or human liver homogenate. The identity and concentration of RG4326 and metabolites was determined after a 24-hour incubation. RG4326 and metabolites were extracted using liquid-liquid extraction (LLE) and/or solid-phase extraction (SPE), which were then analyzed for identity and concentration using ion-pairing-reversed-phase high performance liquid chromatography coupled with time-of-flight mass spectrometry (IP—RP-HPLC-TOF).
# [2] = In vitro metabolic stability in mouse liver lysate; format: in vitro ADME; conditions: 24-hour incubation of RG4326
# Method: Metabolic stability was evaluated by incubating each anti-miR-17 compound in a mouse liver lysate. After 24 hours, the percentage of intact compound remaining is calculated. Compounds that are not stable following a 24-hour incubation are potentially not stable in vivo.
# as §1
# [3] = In vitro metabolic stability in monkey liver lysate; format: in vitro ADME; conditions: 24-hour incubation of RG4326
# Method: as §1
# miR-17 [4] = assay: microRNA polysome shift assay (miPSA), kidney target engagement; format: in vivo, mouse; parameters: miPSA Score Wild Type Mice / miPSA Score PKD Mice / miPSA displacement score (mean): scale not given here; conditions: kidney, seven days; for miPSA Score PKD Mice: JCK mice, single dose 30 mg/kg; for miPSA Score Wild Type Mice: single dose 3 mg/kg
# Method: (§2) In vivo potency was evaluated using the microRNA polysome shift assay (miPSA). This assay was used to determine the extent to which compounds directly engage the miR-17 target in the kidney in normal and PKD mice. The miPSA relies on the principle that active miRNAs bind to their mRNA targets in translationally active high molecular weight (HMW) polysomes, whereas the inhibited miRNAs reside in the low MW (LMW) polysomes. Treatment with anti-miR results in a shift of the microRNA from HMW polysomes to LMW polysomes. Thus, the miPSA provides a direct measurement of microRNA target engagement by a complementary anti-miR (Androsavich et al., Nucleic Acids Research, 2015, 44: e13).
# (§3) The miPSA was used to assess the potency of each compound, measured by the displacement score, in wild type and JCK mice. Tissue accumulation of anti-miR-17 compound was measured by extraction of compound using liquid-liquid extraction (LLE) and/or solid-phase extraction (SPE), followed by analysis of the identity and concentration of compound using ion-pairing-reversed-phase high performance liquid chromatography coupled with time-of-flight mass spectrometry (IP—RP-HPLC-TOF).
# (§4) Wild type mice were administered a single dose of 3 mg/kg for the miPSA analysis, and a single dose of 30 mg/kg for the tissue accumulation analysis. JCK mice were administered a single dose of 30 mg/kg for both the miPSA and tissue accumulation analyses. Kidney tissue was collected seven days following the administration of anti-miR-17 compound. […] A higher kidney-to-liver ratio is generally preferred for a disease where the primary site of action is the kidney.
# as §2, with “The” for “In vivo potency was evaluated using the”, “(miPSA),” for “(miPSA). This assay”, “identify” for “determine the extent to which”, “compounds that” for “compounds”, “engage” for “engage the”, “miR-17” for “miR-17 target”
# For this experiment, the PKD model selected was the JCK model, a mouse model of slowly progressing renal cystic disease associated with the same gene that causes human nephronophthisis type 9. Renal cysts in this mouse develop in multiple regions of the nephron.
# C57BL6 mice were treated with a single, subcutaneous dose of 0.3, 3, and 30 mg/kg of RG4326 or tool anti-miR-17 (described in Example 1). JCK mice were treated with a single, subcutaneous dose of 3, 30, and 100 mg/kg of RG4326 or tool anti-miR-17. PBS treatment was used as an additional control. At seven days post-treatment, mice were sacrificed, and kidney tissue was isolated for the miPSA. […] The displacement scores following treatment with RG4326 were greater than the displacement scores following treatment with the tool anti-miR-17 compound. The data for wild-type mice and JCK mice are also shown in FIG. 3A and FIG. 3B, respectively.
# Pharmacokinetic behavior was assessed by administering a single subcutaneous 30 mg/kg dose of RG4326 or tool anti-miR-17 compound to wild-type mice. At one hour, four hours, eight hours, one day, seven days, 14 days, 28 days and 56 days following the single injection, mice were sacrificed and the mean concentration of anti-miR compound in kidney and liver tissue was measured (ug/g) as described above. The area-under-curve (AUC) was calculated for kidney and liver tissue using the formula ug*h/g, where ug is the amount of oligonucleotide in the tissue, h is the timepoint of tissue collection in hours, and g is the weight of the tissue. The ratio of kidney AUC to liver AUC was determined. Kidney tissue was also processed to the miPSA, to determine target engagement for each compound in this study. […]
# [5] = Tissue accumulation in kidney and liver (kidney-to-liver ratio); format: in vivo, mouse; conditions: single dose 30 mg/kg, seven days; for Kidney-to-Liver Ratio PKD Mice: JCK mice
# Method: Pharmacokinetic properties and tissue distribution of select compounds were assessed in wild type C57BL6 mice and JCK mice (an experimental model of PKD). Compound was administered to wild type mouse at a dose of 0.3, 3, or 30 mg/kg, or to JCK mice at a dose of 3, 30, or 100 mg/kg. After seven days, mice were sacrificed. Kidney and liver tissues were collected. Concentration of anti-miR-17 compound was measured in liver and kidney. Compounds that accumulate to a greater level in kidney, relative to liver (i.e., have a higher kidney-to-liver ratio) were preferred.
# as §3, §4
# miR-17 [6] = assay: miR-17 luciferase reporter assay in HeLa cells; format: cell-based; conditions: mean
# Method: In vitro potency was evaluated using a luciferase reporter assay. A luciferase reporter plasmid for miR-17, with […] in the 3′-UTR of the luciferase gene. Compounds of longer lengths were selected if their maximum inhibition was greater than that of the tool anti-miR-17 compound. As shorter compounds, such as 9-mers, are typically not maximally active in the same assay conditions used for longer compounds, shorter compounds were selected based on maximum inhibition relative to appropriate control compounds. In this way, compounds that are diverse in both length and chemical composition were included in further testing.
# One assay employed was the luciferase assay. […] Accordingly, the luciferase assay transfection conditions were optimized for short anti-miR-17 compounds, so that the inhibitory activity of the compounds could be measured.
# The luciferase reporter plasmid for miR-17 contained a fully complementary miR-17 binding site in the 3′-UTR of the luciferase gene. HeLa cells were transfected with the microRNA mimic and its cognate luciferase reporter, followed by transfection with anti-miR-17 at doses of […], 3, 10, 30, 100, and 300 nM. At the end of the 24-hour transfection period, luciferase activity was measured. As shown in Table 2-1, RG4047, while not as potent as RG4326, inhibited miR-17 activity in a dose dependent manner. SD indicates standard deviation.
# Additional in vitro assays were conducted to further explore the potency of RG4326. A luciferase reporter assay was used to test the ability of RG4326 to inhibit the miR-17 family members miR-17, miR-20a, miR-93, and miR-106b. A luciferase reporter plasmid for each of miR-20a, miR-93, and miR-106b was constructed, with a fully complementary microRNA binding site in the 3′-UTR of the luciferase gene. HeLa cells were transfected with the microRNA mimic and its cognate luciferase reporter, followed by transfection with anti-miR-17 at a dose of 100 nm. […] As RG4326 is 100% complementary to the other miR-17 family members not tested, miR-20b and […], it is expected to inhibit these microRNAs as well.
# [7] = Safety evaluation of RG4047 (pro-inflammatory signal in kidney and liver)
# Method: In in vitro assays, the potential for toxicity was assessed using a biochemical fluorescent binding assay (FBA) and a liver or kidney slice assay. The FBA is performed by incubating a fluorescent dye with each compound, and immediately measuring fluorescence. Highly fluorescent compounds have the potential to produce toxicity in vivo. The liver or kidney slice assay is performed by incubating a slice of tissue from a core liver sample isolated from rat. Following a 24-hour incubation, RNA is extracted from the tissue slice, and the expression levels of 18 pro-inflammatory genes are measured. An induction in pro-inflammatory gene expression indicates a potential for pro-inflammatory effects in vivo.
# Additional in vivo toxicology assessments were performed by administering to normal mice (Sv129 mice) a single subcutaneous injection of 300 mg/kg of anti-miR-17 compound. After four days, mice were sacrificed, blood was collected for serum chemistry analysis, liver and spleen were weighed, and RNA was isolated from kidney and liver tissues. The expression level of a pro-inflammatory gene, interferon-induced protein with tetratricopeptide repeats (IFIT), was measured.
# RG4047 was evaluated for potency in vivo, safety, and distribution to kidney and liver.
# Pcy mice = assay: Efficacy in the Pcy model of PKD; format: in vivo, mouse
# Description: Two experimental models of PKD were used to evaluate efficacy. Pkd2-KO mice spontaneously develop polycystic kidney disease, and were used as a model of ADPKD. See Patel et al., PNAS, 2013; 110 (26): 10765-10770. Pcy mice bearing a mutation in Nphp3 spontaneously develop polycystic kidney disease, with a slower progression of disease than that observed in the Pkd2-KO mice. The Pcy model is used as a model of nephronophthisis. See Happe and Peters, Nat. Rev. Nephrol., 2014; 10:587-601.
# Cyst index is a histological measurement of cystic area relative to total kidney area. For this analysis, one kidney was perfused with cold PBS and 4% (wt/vol) paraformaldehyde and then harvested. Kidneys were fixed with 4% paraformaldehyde for 2 hours and then, embedded in paraffin for sectioning. Sagittal sections of kidneys were stained with hematoxylin and eosin (H&E). All image processing steps were automated and took place in freely available and open source software: An R1 script which used functions from the EBImage Bioconductor package2 and the ImageMagick3 suite of image processing tools. Kidney H&E images in Aperio SVS format were converted to TIFF images, and the first frame was retained for image analysis. First, the total kidney section area was calculated using image segmentation. Image segmentation was similarly used to find all internal structures including kidney cyst. A filter was applied to remove all objects less than a mean radius of three pixels. The cystic index is the image area associated with cysts divided by the total kidney areas. Cystic index was separately calculated for longitudinal and transverse kidney sections for each individual animal. Combined cystic index of individual animals were compared for each treatment groups.
# RG4326 was tested in the Pcy mouse model. Wild-type mice were used as control group. From four weeks of age, Pcy mice were treated once per week via subcutaneous injection with RG4326 at a dose of 25 mg/kg, tool anti-miR-17 at a dose of 25 mg/kg, control oligonucleotide RG5124 at a dose of 25 mg/kg, or PBS. Each treatment group contained 15 male mice. Three treatments were administered on […] days of age, and weekly thereafter at 6, 7, 8, 9, 10, 11, 12, 13, and 14 weeks of age. Also tested was tolvaptan, a vasopressin V2-receptor antagonist (VRA) that is prescribed to some patients with polycystic kidney disease. Mice were sacrificed at 15 weeks of age. Body weight was recorded. One kidney was extracted and weighed and the other processed for histological analysis to calculate cyst index as described for the study in the Pkhd1/cre; Pkd2^F/F. Blood urea nitrogen (BUN) level and serum creatinine level were measured. Statistical significance was calculated by one-way ANOVA with Dunnett's multiple correction.
# [8] = 25 mg/kg s.c. for oligonucleotides, sacrificed at 15 weeks of age
compound,measurement,setting,value
5′-ASGSCMAF-3′ [Metabolite 2],"Ex Vivo Liver Lysate (% Analyte), Human",[1],0.7%
same,"Ex Vivo Liver Lysate (% Analyte), Mouse",[2],0.6%
same,"Ex Vivo Liver Lysate (% Analyte), Monkey",[3],2.3%
ASGSCMASCMUSUMUSGS [Compound 4324],miPSA Score PKD Mice,miR-17 [4],2.53
same,miPSA Score Wild Type Mice,miR-17 [4],2.81
same,Kidney-to-Liver Ratio PKD Mice,[5],3.9
same,Kidney-to-Liver Ratio Wild Type Mice,[5],5.0
ASGMCFAFCFUFUFUMGS [Compound 4327],miPSA Score PKD Mice,miR-17 [4],1.53
same,miPSA Score Wild Type Mice,miR-17 [4],2.85
same,Kidney-to-Liver Ratio PKD Mice,[5],9.4
same,Kidney-to-Liver Ratio Wild Type Mice,[5],24.9
ASGSCMAMCMUMUMUSGS [Compound 4325],miPSA Score PKD Mice,miR-17 [4],2.00
same,miPSA Score Wild Type Mice,miR-17 [4],1.82
same,Kidney-to-Liver Ratio PKD Mice,[5],5.7
same,Kidney-to-Liver Ratio Wild Type Mice,[5],12.4
5′-ASGSCMAFCF-3′ [Metabolite 1],"Ex Vivo Liver Lysate (% Analyte), Human",[1],0.6%
same,"Ex Vivo Liver Lysate (% Analyte), Mouse",[2],0.3%
same,"Ex Vivo Liver Lysate (% Analyte), Monkey",[3],1.8%
ASGSCSASCSUSUSUSGS [RG4047],miPSA Score PKD Mice,miR-17 [4],1.80
same,miPSA Score Wild Type Mice,miR-17 [4],1.76
same,Luciferase Fold Derepression,"miR-17 [6]; 0.001 nM anti-miR-17, 24-hour transfection",1
same,Luciferase Fold Derepression,"miR-17 [6]; 3 nM anti-miR-17, 24-hour transfection",1.6
same,Luciferase Fold Derepression,"miR-17 [6]; 10 nM anti-miR-17, 24-hour transfection",2.2
same,Luciferase Fold Derepression,"miR-17 [6]; 30 nM anti-miR-17, 24-hour transfection",3.5
same,Luciferase Fold Derepression,"miR-17 [6]; 100 nM anti-miR-17, 24-hour transfection",8.2
same,Luciferase Fold Derepression,"miR-17 [6]; 300 nM anti-miR-17, 24-hour transfection",7.5
same,pro-inflammatory signal (in words),[7],slight pro-inflammatory signal in both kidney and liver
same,Kidney-to-Liver Ratio PKD Mice,[5],2.1
same,Kidney-to-Liver Ratio Wild Type Mice,[5],4.4
"Cc1ccccc1C(=O)Nc1ccc(C(=O)N2CCCC(O)c3cc(Cl)ccc32)c(C)c1 (stereo not drawn) [Tolvaptan, tolvaptan]","efficacy on KW/BW ratio, BUN or cyst index (in words)",Pcy mice,not efficacious
same,BUN (mean),Pcy mice; [8],24.4
same,Cystic Index (mean),Pcy mice; [8],0.26
same,KW/BW Ratio (mean),Pcy mice; [8],20.1
